Test results published in ChEMBL document CHEMBL1177848, “Synthesis of novel 6,6a,7,8-tetrahydro-5H-naphtho[1,2-e]pyrimido[4,5-b][1,4]diazepines under microwave irradiation as potential anti-tumor agents” (2010).
The source made the active and inactive calls. No cut-off for these calls is given here.

Assays:
UO-31 [1] = experiment: Growth inhibition of human UO31 cells at 1 uM after 48 hrs by sulforhodamine B assay; type: functional, cell-based
CAKI-1 [2] = experiment: Growth inhibition of human Caki1 cells at 1 uM after 48 hrs by sulforhodamine B assay; type: functional, cell-based
U-251 = experiment: Growth inhibition of human U251 cells at 1 uM after 48 hrs by sulforhodamine B assay; type: functional, cell-based
M14 = experiment: Growth inhibition of human M14 cells at 1 uM after 48 hrs by sulforhodamine B assay; type: functional, cell-based
OVCAR-4 [3] = experiment: Growth inhibition of human OVCAR4 cells after 48 hrs by sulforhodamine B assay; type: functional; details: OVCAR-4, 48 h
MCF7 [4] = experiment: Growth inhibition of human MCF7 cells after 48 hrs by sulforhodamine B assay; type: functional; details: MCF7, 48 h
PC-3 [5] = experiment: Growth inhibition of human PC3 cells at 1 uM after 48 hrs by sulforhodamine B assay; type: functional, cell-based
SK-MEL-5 = experiment: Growth inhibition of human SK-MEL-5 cells at 1 uM after 48 hrs by sulforhodamine B assay; type: functional, cell-based
IGROV-1 [6] = experiment: Growth inhibition of human IGROV1 cells after 48 hrs by sulforhodamine B assay; type: functional; details: IGROV-1, 48 h
CCRF-CEM = experiment: Growth inhibition of human CCRF-CEM cells at 1 uM after 48 hrs by sulforhodamine B assay; type: functional, cell-based
UACC-62 = experiment: Growth inhibition of human UACC62 cells at 1 uM after 48 hrs by sulforhodamine B assay; type: functional, cell-based
NCI-H522 [7] = experiment: Growth inhibition of human NCI-H522 cells after 48 hrs by sulforhodamine B assay; type: functional; details: NCI-H522, 48 h
EKVX = experiment: Growth inhibition of human EKVX cells after 48 hrs by sulforhodamine B assay; type: functional
KM12 = experiment: Growth inhibition of human KM12 cells at 1 uM after 48 hrs by sulforhodamine B assay; type: functional, cell-based
SR = experiment: Growth inhibition of human SR cells after 48 hrs by sulforhodamine B assay; type: functional
Hs-578T = experiment: Growth inhibition of human Hs 578T cells at 1 uM after 48 hrs by sulforhodamine B assay; type: functional, cell-based
HCC 2998 = experiment: Growth inhibition of human HCC2998 cells at 1 uM after 48 hrs by sulforhodamine B assay; type: functional, cell-based
MCF7 [8] = experiment: Growth inhibition of human MCF7 cells at 1 uM after 48 hrs by sulforhodamine B assay; type: functional, cell-based
UACC-257 = experiment: Growth inhibition of human UACC257 cells at 1 uM after 48 hrs by sulforhodamine B assay; type: functional, cell-based
SF-268 = experiment: Growth inhibition of human SF268 cells at 1 uM after 48 hrs by sulforhodamine B assay; type: functional, cell-based
LOX IMVI = experiment: Growth inhibition of human LOXIMVI cells after 48 hrs by sulforhodamine B assay; type: functional
SNB-75 = experiment: Growth inhibition of human SNB75 cells at 1 uM after 48 hrs by sulforhodamine B assay; type: functional, cell-based
CAKI-1 [9] = experiment: Growth inhibition of human Caki1 cells after 48 hrs by sulforhodamine B assay; type: functional; details: CAKI-1, 48 h
SW-620 = experiment: Growth inhibition of human SW620 cells at 1 uM after 48 hrs by sulforhodamine B assay; type: functional, cell-based
HOP-92 = experiment: Growth inhibition of human HOP92 cells after 48 hrs by sulforhodamine B assay; type: functional; details: HOP-92, 48 h
MDA-MB-468 = experiment: Growth inhibition of human MDA-MB-468 cells after 48 hrs by sulforhodamine B assay; type: functional; details: MDA-MB-468, 48 h
NCI/ADR-RES [10] = experiment: Growth inhibition of human NCI/ADR-RES cells at 1 uM after 48 hrs by sulforhodamine B assay; type: functional, cell-based
NCI-H322M = experiment: Growth inhibition of human […] cells at 1 uM after 48 hrs by sulforhodamine B assay; type: functional, cell-based
OVCAR-3 [11] = experiment: Growth inhibition of human OVCAR-3 cells after 48 hrs by sulforhodamine B assay; type: functional; details: OVCAR-3, 48 h
NCI-H226 = experiment: Growth inhibition of human NCI-H226 cells at 1 uM after 48 hrs by sulforhodamine B assay; type: functional, cell-based
NCI/ADR-RES [12] = experiment: Growth inhibition of human NCI/ADR-RES cells after 48 hrs by sulforhodamine B assay; type: functional
Malme-3M = experiment: Growth inhibition of human MALME-3M cells at 1 uM after 48 hrs by sulforhodamine B assay; type: functional, cell-based
A549 = experiment: Growth inhibition of human A549 cells at 1 uM after 48 hrs by sulforhodamine B assay; type: functional, cell-based
HL-60 = experiment: Growth inhibition of human HL-60(TB) cells at 1 uM after 48 hrs by sulforhodamine B assay; type: functional, cell-based
RXF 393 = experiment: Growth inhibition of human RXF393 cells after 48 hrs by sulforhodamine B assay; type: functional; details: RXF 393, 48 h
SK-MEL-2 = experiment: Growth inhibition of human SK-MEL-2 cells at 1 uM after 48 hrs by sulforhodamine B assay; type: functional, cell-based
MDA-MB-435 = experiment: Growth inhibition of human MDA-MB-435 cells at 1 uM after 48 hrs by sulforhodamine B assay; type: functional, cell-based
OVCAR-3 [13] = experiment: Growth inhibition of human OVCAR-3 cells at 1 uM after 48 hrs by sulforhodamine B assay; type: functional, cell-based
IGROV-1 [14] = experiment: Growth inhibition of human IGROV1 cells at 1 uM after 48 hrs by sulforhodamine B assay; type: functional, cell-based
SF-295 = experiment: Growth inhibition of human SF295 cells at 1 uM after 48 hrs by sulforhodamine B assay; type: functional, cell-based
T47D = experiment: Growth inhibition of human T47D cells after 48 hrs by sulforhodamine B assay; type: functional
UO-31 [15] = experiment: Growth inhibition of human UO31 cells after 48 hrs by sulforhodamine B assay; type: functional; details: UO-31, 48 h
HOP-62 = experiment: Growth inhibition of human HOP62 cells at 1 uM after 48 hrs by sulforhodamine B assay; type: functional, cell-based
BT-549 = experiment: Growth inhibition of human BT549 cells after 48 hrs by sulforhodamine B assay; type: functional; details: BT-549, 48 h
OVCAR-4 [16] = experiment: Growth inhibition of human OVCAR4 cells at 1 uM after 48 hrs by sulforhodamine B assay; type: functional, cell-based
NCI-H522 [17] = experiment: Growth inhibition of human NCI-H522 cells at 1 uM after 48 hrs by sulforhodamine B assay; type: functional, cell-based
PC-3 [18] = experiment: Growth inhibition of human PC3 cells after 48 hrs by sulforhodamine B assay; type: functional; details: PC-3, 48 h
HCT-15 = experiment: Growth inhibition of human HCT15 cells at 1 uM after 48 hrs by sulforhodamine B assay; type: functional, cell-based
[19] = read-out: LC50 (the source's name)

Nc1nc(N)c2c(n1)NC(c1ccc(Cl)cc1)C1CCc3ccccc3C1=N2 (stereo not given)
growth inhibition (GI) (UO-31 [1]): inactive | growth inhibition (GI) (CAKI-1 [2]): inactive | growth inhibition (GI) (U-251): inactive | growth inhibition (GI) (M14): inactive | GI50 (OVCAR-4 [3]): 6.45 µM | LC50 (50% lethal concentration) (OVCAR-4 [3]): 50.9 µM | GI50 (MCF7 [4]): 2.41 µM | LC50 (MCF7 [4]): 33.7 µM | growth inhibition (GI) (PC-3 [5]): inactive | growth inhibition (GI) (SK-MEL-5): inactive | GI50 (IGROV-1 [6]): 6.16 µM | LC50 (concentration killing 50% of cells) (IGROV-1 [6]): 49.9 µM | growth inhibition (GI) (CCRF-CEM): inactive | growth inhibition (GI) (UACC-62): inactive | GI50 (NCI-H522 [7]): 5.21 µM | LC50 (NCI-H522 [7]): 54.4 µM | GI50 (EKVX): 3.62 µM | LC50 (EKVX): 96.5 µM | growth inhibition (GI) (KM12): inactive | GI50 (SR): 1.73 µM | LC50 (SR): 36.3 µM | growth inhibition (GI) (Hs-578T): inactive | growth inhibition (GI) (HCC 2998): inactive | growth inhibition (GI) (MCF7 [8]): inactive | growth inhibition (GI) (UACC-257): inactive | growth inhibition (GI) (SF-268): inactive | GI50 (LOX IMVI): 3.53 µM | LC50 (LOX IMVI): 44.5 µM | growth inhibition (GI) (SNB-75): inactive | GI50 (CAKI-1 [9]): 4.33 µM | CC50 (CAKI-1 [9]; [19]): 50 µM | growth inhibition (GI) (SW-620): inactive | GI50 (HOP-92): 2.26 µM | LC50 (50% lethal concentration) (HOP-92): 31.9 µM | GI50 (MDA-MB-468): 1.6 µM | CC50 (MDA-MB-468; [19]): 54.5 µM | growth inhibition (GI) (NCI/ADR-RES [10]): inactive | growth inhibition (GI) (NCI-H322M): inactive | GI50 (OVCAR-3 [11]): 6.46 µM | LC50 (lethal concentration, 50% cell kill) (OVCAR-3 [11]): 43.6 µM | growth inhibition (GI) (NCI-H226): inactive | GI50 (NCI/ADR-RES [12]): 5.53 µM | LC50 (concentration killing 50% of cells) (NCI/ADR-RES [12]): 43.8 µM | growth inhibition (GI) (Malme-3M): inactive | growth inhibition (GI) (A549): inactive | growth inhibition (GI) (HL-60): inactive | GI50 (RXF 393): 4.68 µM | LC50 (50% lethal concentration) (RXF 393): 54.4 µM | growth inhibition (GI) (SK-MEL-2): inactive | growth inhibition (GI) (MDA-MB-435): inactive | growth inhibition (GI) (OVCAR-3 [13]): inactive | growth inhibition (GI) (IGROV-1 [14]): inactive | growth inhibition (GI) (SF-295): inactive | GI50 (T47D): 4.09 µM | CC50 (T47D; [19]): 59.8 µM | GI50 (UO-31 [15]): 3.63 µM | LC50 (UO-31 [15]): 46.2 µM | growth inhibition (GI) (HOP-62): inactive | GI50 (BT-549): 9.01 µM | CC50 (BT-549; [19]): 52.6 µM | growth inhibition (GI) (OVCAR-4 [16]): inactive | growth inhibition (GI) (NCI-H522 [17]): inactive | GI50 (PC-3 [18]): 2.86 µM | LC50 (PC-3 [18]): 48.9 µM | growth inhibition (GI) (HCT-15): inactive
